In patent US20100093748A1, “SUBSTITUTED PIPERIDINES HAVING PROTEIN KINASE INHIBITING ACTIVITY” (ASTEX THERAPEUTICS LIMITED, priority 2006, published 2010):
Where two headings read alike, the source gives them in different places.

Tests used:
PKB-PIF fusion protein = target: T1, PKB-PIF fusion protein (Homo sapiens, UniProt P31751); assay: Measurement of PKB kinase inhibitory activity (IC50), radiometric filter plate assay; format: biochemical; settings: 0.6 nM enzyme, 30 μM ATP, AKTide-2T substrate, 20 minutes
T1 construct: PIF (fusion partner); made in house
Excerpt: The inhibition of protein kinase B (PKB) activity by compounds can be determined essentially as described by Andjelkovic et al. (Mol. Cell. Biol. 19, 5061-5072 (1999)) but using a fusion protein described as PKB-PIF and described in full by Yang et al (Nature Structural Biology 9, 940-944 (2002)). The protein is purified and activated with PDK1 as described by Yang et al. The peptide AKTide-2T (H-A-R-K-R-E-R-T-Y-S-F-G-H-H-A-OH) obtained from Calbiochem (#123900) is used as a substrate. A final concentration of 0.6 nM enzyme is used in a buffer that includes 20 mM MOPS pH 7.2, 30 μM ATP/γ^33P-ATP and 25 µM substrate. Compounds are added in DMSO solution to a final DMSO concentration of 2.5%. The reaction is allowed to proceed for 20 minutes before addition of excess orthophosphoric acid to quench activity. The reaction mixture is transferred to a phosphocellulose filter plate where the peptide binds and the unused ATP is washed away. After washing, scintillant is added and the incorporated activity measured by scintillation counting.
The % inhibition of the PKB activity is calculated and plotted in order to determine the concentration of test compound required to inhibit 50% of the PKB activity (IC50).

[1] = system: phosphorylation of Serine-9 residue in Glycogen Synthase Kinase-3beta as surrogate marker of cellular PKB (Akt) activity; assay: In vitro MDA-MB-468 human breast adenocarcinoma GSK-3 phosphorylation assay; format: cell-based
Excerpt: This assay determines the ability of test compounds to inhibit phosphorylation of Serine-9 residue in Glycogen Synthase Kinase-3beta (GSK-313) as a surrogate marker of cellular PKB (Akt) activity, as assessed using Acumen Explorer Fluorescent Plate-Reader technology. A MDA-MB-468 human breast adenocarcinoma cell line (LGC Promochem, Teddington, Middlesex, UK, Catalogue No. HTB-132) was routinely maintained in Dulbecco's modified Eagle's growth medium (DMEM; Invitrogen Limited, Paisley, UK Catalogue No. 11966-025) containing 10% heat-inactivated foetal calf serum (FCS; Sigma, Poole, Dorset, UK, Catalogue No. F0392) and 1% L-glutamine (Gibco, Catalogue No. 25030-024) at 37° C. with 5% CO2 up to a confluency of 70-90%.
For the phosphorylation assay, the cells were detached from the culture flask using Trypsin-EDTA (Invitrogen Limited, Catalogue No. 25300-062) and seeded into the wells of a black transparent-bottom Corning Costar Polystyrene 96 well plate (Fisher Scientific UK, Loughborough, Leicestershire, UK; Catalogue No. 3904 and DPS-130-020K) at a density of 5000 cells per well in 100 μl of complete growth media. The cells were incubated overnight at 37° C. with 5% CO2 to allow them to adhere.
On day 2, the cells were treated with test compounds and incubated for 2 hours at 37° C. with 5% CO2. Test compounds were prepared as 10mM stock solutions in DMSO and dosed directly to required concentration into test wells using non-contact (acoustic dispensing of multiple 2.5 nl droplets directly into assay wells) ECHO dosing technology (Labcyte Inc Sunnyvale, Calif., USA). Each plate contained control wells without test compound.
20 μl of fixing buffer (Phosphate Buffered Saline (PBS) containing 10% formaldehyde; Sigma; Catalogue No. F1635) was then added to each well to give a final well concentration 1.6%. Plates were then incubated for 30 minutes at room temperature prior to the fixative being removed. Each well was washed once with 250 μl of PBS and then 50 μl PBS added to each well. PBS was then aspirated and cells permeabilised and blocked by incubating each well with 50 μl of permeabilisation/blocking buffer (PBS containing 0.5% Tween 20 (Sigma; Catalogue No. P5927) and 5% Marvel Milk Powder (Andrews Pharmacy Ltd, Macclesfield, Cheshire, UK; Catalogue No. APC100199)) for 1 hour at room temperature prior to staining.
Following removal of Perm/Block buffer, 50 μl of primary anti-phospho-GSK-3β antibody (Cell Signalling Technology (New England Biolabs (Uk) Ltd.), Hitchin, Hertfordshire, UK; Catalogue No.9336 diluted 1:400 in Blocking buffer (PBS containing 5% Marvel and 0.05% Tween/Polysorbate 20) was added to each well and incubated overnight at 4° C.
Each well was washed three times in 250 μl of wash buffer (PBS containing 0.05% polysorbate 20), and cells incubated for 1 hour at room temperature with 50 μl of secondary fluorescently-labelled anti-rabbit Alexa Fluor 488 antibody (Molecular Probes, Invitrogen Limited, Catalogue No. A11008) diluted 1:750 in blocking buffer. Plates were washed three times in 250 μl of wash buffer and stored containing 50 μl of PBS at 4° C. until required.
Plates were analysed using an Acumen Explorer Plate-reader to quantify level of fluorescent signal that represents quantity of phosphorylated-GSK-313.
IC50 calculation—IC50 is the concentration of compound required to give 50% effect over the range of activity affected by the compound, between maximum (no compound) and minimum (excess level of compound) response control data. IC50 values were determined by fitting background corrected, dose response assay data to a 4 parameter logistic curve fit equation model with the minimum response set to zero. This was done using an in-house developed algorithm within the Origin graphing software package (OriginLab Corporation, Northampton, Mass., USA). […]

[2] = MDA-MB-468 cells, 2 hours compound incubation, mean IC50, read-out: Cell pGSK3b IC50
[3] = MDA-MB-468, 2 h, read-out: Cell pGSK3b IC50

T1 sequence (P31751 with tags, fused parts or gaps limits assumed): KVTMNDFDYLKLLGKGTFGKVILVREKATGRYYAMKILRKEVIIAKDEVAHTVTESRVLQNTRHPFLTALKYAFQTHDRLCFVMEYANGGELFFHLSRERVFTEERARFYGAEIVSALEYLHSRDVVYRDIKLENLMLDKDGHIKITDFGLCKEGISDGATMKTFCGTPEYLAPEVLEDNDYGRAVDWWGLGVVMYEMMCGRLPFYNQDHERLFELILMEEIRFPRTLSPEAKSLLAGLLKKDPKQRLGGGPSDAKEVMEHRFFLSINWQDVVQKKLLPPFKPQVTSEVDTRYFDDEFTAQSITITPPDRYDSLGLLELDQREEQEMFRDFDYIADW

Row | IC50 [1, 2] [nM] | SMILES | further results
1 | 2500 | COc1ccccc1-c1ccc2[nH]c(C3(N)CCN(c4ncnc5[nH]ccc45)CC3)nc2c1 [Example 71, 4-[5-(2-methoxyphenyl)-1H-benzimidazol-2-yl]-1-(7H-pyrrolo[2,3-d]pyrimidin-4-yl)piperidin-4-amine] | –
2 | 220 | NC1(c2nc3c(-c4ccco4)cccc3[nH]2)CCN(c2ncnc3[nH]ccc23)CC1 [Example 87, 4-[7-(2-furyl)-1H-benzimidazol-2-yl]-1-(7H-pyrrolo[2,3-d]pyrimidin-4-yl)piperidin-4-amine] | –
3 | 350 | NC1(c2nc3c(-c4ccccc4)cccc3[nH]2)CCN(c2ncnc3[nH]ncc23)CC1 [Example 108, 4(4-phenyl-1H-benzo[d]imidazol-2-yl)-1-(1H-pyrazolo[3,4-d]pyrimidin-4-yl)piperidin-4-amine] | –
4 | 660 | NC1(c2nc3ccc(Cl)cc3[nH]2)CCN(c2ncnc3[nH]ccc23)CC1 [Example 13, 4-(6-chloro-1H-benzoimidazol-2-yl)-1-(7H-pyrrolo[2,3-d]pyrimidin-4-yl)-piperidin-4-ylamine] | –
5 | 3700 | Cn1cc(-c2ccc3[nH]c(C4(N)CCN(c5ncnc6[nH]ccc56)CC4)nc3c2)cn1 [Example 74, 4-[5-(1-methylpyrazol-4-yl)-1H-benzimidazol-2-yl]-1-(7H-pyrrolo[2,3-d]pyrimidin-4-yl)piperidin-4-amine] | –

The next lines start with the compound.

Row | SMILES | IC50 [1, 2] [nM] | further results
6 | NC1(c2nc3ccccc3[nH]2)CCN(c2ccnc3[nH]ccc23)CC1 [Example 19, 4-(1H-benzoimidazol-2-yl)-1-(1H-pyrrolo[2,3-b]pyridin-4-yl)-piperidin-4-ylamine] | – | IC50 (PKB-PIF fusion protein): < 100 nM
7 | Cc1ccc2nc(C3(N)CCN(c4ncnc5[nH]ccc45)CC3)[nH]c2c1 [Example 5, 4-(6-Methyl-1H-benzoimidazol-2-yl)-1-(7H-pyrrolo[2,3-d]pyrimidin-4-yl)-piperidin-4-ylamine] | – | IC50 (PKB-PIF fusion protein): < 100 nM
8 | NC1(c2ncc(-c3ccccc3)o2)CCN(c2ncnc3[nH]ccc23)CC1 [Example 40, 4-(5-Phenyl-oxazol-2-yl)-1-(7H-pyrrolo[2,3-d]pyrimidin-4-yl)-piperidin-4-ylamine] | – | IC50 (PKB-PIF fusion protein): < 1000 nM
9 | NC1(c2ncc(-c3ccccc3)[nH]2)CCN(c2ccnc3[nH]ccc23)CC1 [Example 41, 4-(5-phenyl-1H-imidazol-2-yl)-1-(1H-pyrrolo[2,3-b]pyridin-4-yl)-piperidin-4-ylamine] | – | IC50 (PKB-PIF fusion protein): < 100 nM
10 | NC1(c2nc3cc(-c4ccncc4)ccc3[nH]2)CCN(c2ncnc3[nH]ccc23)CC1 [Example 70, 4-(5-pyridin-4-yl-1H-benzimidazol-2-yl)-1-(7H-pyrrolo[2,3-d]pyrimidin-4-yl)piperidin-4-amine] | 1600 | –
11 | CC(C)c1ccc2[nH]c(C3(N)CCN(c4ncnc5[nH]ccc45)CC3)nc2c1 [Example 62, 4(5-isopropyl-1H-benzo[d]imidazol-2-yl)-1-(7H-pyrrolo[2,3-d]pyrimidin-4-yl)piperidin-4-amine] | 580 | –
12 | CS(=O)(=O)c1ccc(-c2cccc3[nH]c(C4(N)CCN(c5ncnc6[nH]ccc56)CC4)nc23)cc1 [Example 83, 4-{4-[4-(methylsulfonyl)phenyl]-1H-benzimidazol-2-yl}-1-(7H-pyrrolo[2,3-d]pyrimidin-4-yl)piperidin-4-amine] | 47 | –
13 | NC1(c2nc3ccc(Cl)cc3[nH]2)CCN(c2ncnc3[nH]ncc23)CC1 [Example 22, 4-(6-chloro-1H-benzoimidazol-2-yl)-1-(1H-pyrazolo[3,4-d]pyrimidin-4-yl)-piperidin-4-ylamine] | 770 | –
14 | NC1(c2nc3c(-c4cncc(F)c4)cccc3[nH]2)CCN(c2ncnc3[nH]ccc23)CC1 [Example 96, 4-[4-(5-fluoropyridin-3-yl)-1H-benzimidazol-2-yl]-1-(7H-pyrrolo[3,2-e]pyrimidin-4-yl)piperidin-4-amine] | 44 | –
15 | Cc1ccc2nc(C3(N)CCN(c4ncnc5[nH]ccc45)CC3)[nH]c2c1C [Example 51, 4-(6,7-dimethyl-1H-benzimidazol-2-yl)-1-(7H-pyrrolo[2,3-d]pyrimidin-4-yl)piperidin-4-amine] | 800 | –
16 | NC1(c2nc3ccc(C(F)(F)F)cc3[nH]2)CCN(c2ncnc3[nH]ccc23)CC1 [Example 50, 1-(7H-Pyrrolo[2,3-d]pyrimidin-4-yl)-4-[6-(trifluoromethyl)-1H-benzimidazol-2-yl]piperidin-4-amine] | 480 | –
17 | CS(=O)(=O)c1ccc(-c2cccc3[nH]c(C4(N)CCN(c5ncnc6[nH]ncc56)CC4)nc23)cc1 [Example 110, 4-[4-(4-methylsulfonylphenyl)-1H-benzo[d]imidazol-2-yl)-1-(1H-pyrazolo[3,4-d]pyrimidin-4-yl)piperidin-4-amine] | 490 | –
18 | CS(=O)(=O)c1ccc(-c2ccc3[nH]c(C4(N)CCN(c5ncnc6[nH]ccc56)CC4)nc3c2)cc1 [Example 78, 4-[5-(4-methylsulfonylphenyl)-1H-benzimidazol-2-yl]-1-(7H-pyrrolo[2,3-d]pyrimidin-4-yl)piperidin-4-amine] | 16000 | –
19 | NCC1(c2nc3ccccc3[nH]2)CCN(c2ncnc3[nH]cc(Br)c23)CC1 [Example 48, (4-(1H-benzo[d]imidazol-2-yl)-1-(5-bromo-7H-pyrrolo[2,3-d]pyrimidin-4-yl)-piperidin-4-yl)methanamine] | 210 | –
20 | COc1ccc(Oc2ccc3[nH]c(C4(N)CCN(c5ncnc6[nH]cnc56)CC4)nc3c2)cc1 [Example 63, 4-(5-(4-methoxyphenoxy)-1H-benzo[d]imidazol-2-yl)-1-(9H-purin-6-yl)piperidin-4-amine] | – | IC50 [1, 3]: > 960 nM
21 | NC1(c2nc3cc(SC(F)(F)F)ccc3[nH]2)CCN(c2ncnc3[nH]ccc23)CC1 [Example 65, 1-(7H-Pyrrolo[2,3-d]pyrimidin-4-yl)-4-(5-(trifluoromethylthio)-1H-benzo[d]imidazol-2-yl)piperidin-4-amine] | – | IC50 [1, 3]: 420 nM
22 | CS(=O)(=O)c1cccc(-c2cccc3[nH]c(C4(N)CCN(c5ncnc6[nH]ccc56)CC4)nc23)c1 [Example 95, 4-[4-(3-methylsulfonylphenyl)-1H-benzimidazol-2-yl]-1-(7H-pyrrolo[3,2-e]pyrimidin-4-yl)piperidin-4-amine] | 49 | –
23 | NCC1(c2nc3ccccc3[nH]2)CCN(c2ncnc3[nH]cc(Cl)c23)CC1 [Example 45, (4-(1H-benzo[d]imidazol-2-yl)-1-(5-chloro-7H-pyrrolo[2,3-d]pyrimidin-4-yl)piperidin-4-yl)methanamine] | 87 | –
